Activity calls are given as the source filed them. No cut-off for these calls is given here.

This is an account of results in ChEMBL document CHEMBL4396884, “Structure-Aided Identification and Optimization of Tetrahydro-isoquinolines as Novel PDE4 Inhibitors Leading to Discovery of an Effective Antipsoriasis Agent” (J Med Chem, 2019).

For data set [1], the target named is 3',5'-cyclic-AMP phosphodiesterase 4D (Homo sapiens) (UniProt Q08499). In words: Inhibition of recombinant human PDE4D catalytic domain at 1 uM using [3H]cAMP as substrate measured after 30 mins by scintillation proximity assay relative to control. (In general: In a scintillation proximity assay essentially only radioactivity close to the scintillant gives light.)
Sequence of 3',5'-cyclic-AMP phosphodiesterase 4D (Homo sapiens) (Q08499 whole entry, the tested form may be a part): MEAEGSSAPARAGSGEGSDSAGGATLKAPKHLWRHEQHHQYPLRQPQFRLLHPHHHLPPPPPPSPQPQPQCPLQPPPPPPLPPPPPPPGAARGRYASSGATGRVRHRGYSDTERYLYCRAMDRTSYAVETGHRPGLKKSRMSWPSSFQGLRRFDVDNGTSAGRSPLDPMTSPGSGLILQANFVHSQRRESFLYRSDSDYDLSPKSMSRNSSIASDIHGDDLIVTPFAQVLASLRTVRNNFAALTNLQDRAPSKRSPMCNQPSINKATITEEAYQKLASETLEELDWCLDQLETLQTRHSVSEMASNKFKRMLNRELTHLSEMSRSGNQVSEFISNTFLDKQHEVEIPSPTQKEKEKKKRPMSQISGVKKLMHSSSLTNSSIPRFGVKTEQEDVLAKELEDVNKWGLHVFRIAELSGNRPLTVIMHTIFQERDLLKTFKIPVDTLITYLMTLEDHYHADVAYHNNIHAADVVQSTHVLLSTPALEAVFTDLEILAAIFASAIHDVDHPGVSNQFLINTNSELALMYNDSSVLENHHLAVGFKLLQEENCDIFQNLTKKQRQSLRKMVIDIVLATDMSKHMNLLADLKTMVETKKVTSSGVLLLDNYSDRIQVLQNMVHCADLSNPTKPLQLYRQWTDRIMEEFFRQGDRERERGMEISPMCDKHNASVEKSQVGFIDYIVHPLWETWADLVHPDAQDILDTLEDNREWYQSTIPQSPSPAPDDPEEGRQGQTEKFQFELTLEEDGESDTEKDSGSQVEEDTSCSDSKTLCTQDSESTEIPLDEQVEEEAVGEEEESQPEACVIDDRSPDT

A short description of data set [2]: Permeability across apical to basal side in human Caco2 cells assessed as drug recovery measured after 95 mins by LC-MS/MS analysis. Format: ADME, cell-based. The conditions noted are these: Caco-2, read-out: Drug recovery. For orientation: Passage across Caco-2 layers is used to estimate intestinal permeability.
The nature of data set [3]: Permeability across basal to apical side in human Caco2 cells assessed as drug recovery measured after 95 mins by LC-MS/MS analysis. Format: ADME, cell-based. Particulars: Caco-2, read-out: Drug recovery.
Data set [4] in a line: Apparent permeability across apical to basal side in human Caco2 cells measured after 95 mins by LC-MS/MS analysis. Format: ADME, cell-based. Particulars: Caco-2.
Data set [5] can be described thus: Apparent permeability across basal to apical side in human Caco2 cells measured after 95 mins by LC-MS/MS analysis. Particulars: Caco-2. Format: ADME, cell-based.
Data set [6] in a line: AUC (0 to t) in Sprague-Dawley rat at 10 mg/kg, iv by LC-MS/MS analysis. The format is ADME, organism-based. The conditions noted are these: in vivo.
Data set [7] can be described thus: AUC (0 to infinity) in Sprague-Dawley rat at 10 mg/kg, iv by LC-MS/MS analysis. Set-up: dose 10 mg/kg, route intravenous, time infinity. Particulars: in vivo. The format is ADME, organism-based.
The nature of data set [8]: MRT in Sprague-Dawley rat at 10 mg/kg, iv by LC-MS/MS analysis. Format: ADME, organism-based. Particulars: in vivo.
Data set [9] in a line: Half life in Sprague-Dawley rat at 10 mg/kg, iv by LC-MS/MS analysis. The format is ADME, organism-based. The conditions noted are these: in vivo.
Data set [10] in a line: Clearance in Sprague-Dawley rat at 10 mg/kg, iv by LC-MS/MS analysis. Format: ADME, organism-based. The conditions noted are these: in vivo.
Data set [11] can be described thus: Volume of distribution at steady state in Sprague-Dawley rat at 10 mg/kg, iv by LC-MS/MS analysis. Format: ADME, organism-based. Particulars: in vivo, read-out: Vdss.
Data set [12] is described as follows: Tmax in Sprague-Dawley rat at 25 mg/kg, po by LC-MS/MS analysis. Format: ADME, organism-based. Particulars: in vivo.
A short description of data set [13]: Cmax in Sprague-Dawley rat at 25 mg/kg, po by LC-MS/MS analysis. Particulars: in vivo. Set-up: dose 25 mg/kg, route oral. The format is ADME, organism-based.
Data set [14] in a line: AUC (0 to t) in Sprague-Dawley rat at 25 mg/kg, po by LC-MS/MS analysis. Format: ADME, organism-based. Particulars: in vivo.
The nature of data set [15]: AUC (0 to infinity) in Sprague-Dawley rat at 25 mg/kg, po by LC-MS/MS analysis. The format is ADME, organism-based. Set-up: dose 25 mg/kg, route oral, time infinity. Particulars: in vivo.
The nature of data set [16]: MRT in Sprague-Dawley rat at 25 mg/kg, po by LC-MS/MS analysis. Format: ADME, organism-based. The conditions noted are these: in vivo.
A short description of data set [17]: Half life in Sprague-Dawley rat at 25 mg/kg, po by LC-MS/MS analysis. The format is ADME, organism-based. The conditions noted are these: in vivo.
Data set [18] deals with Mus musculus. The experiment in a line: Antiinflammatory activity in specific pathogen free BALB/c mouse assessed as inhibition of LPS-induced TNFalpha secretion in serum at 1 mg/kg, po administered as single dose pretreated for 1.5 hrs followed by LPS stimulation and measured after 2 hrs by ELISA. The format is functional, organism-based. Background: An ELISA detects its analyte on a solid surface through an enzyme-linked reagent.

The nature of data set [19]: Oral bioavailability in Sprague-Dawley rat at 25 mg/kg by LC-MS/MS analysis. The format is ADME, organism-based. Particulars: in vivo.
Data set [20] has as its system Mus musculus. The experiment in a line: Antiinflammatory activity in specific pathogen free BALB/c mouse assessed as inhibition of LPS-induced IL6 secretion in serum at 1 mg/kg, po administered as single dose pretreated for 1.5 hrs followed by LPS stimulation and measured after 2 hrs by ELISA. Format: functional, organism-based.
For data set [21], the system named is Mus musculus. In words: Antiinflammatory activity in specific pathogen free BALB/c mouse assessed as inhibition of LPS-induced IL12p40 secretion in serum at 1 mg/kg, po administered as single dose pretreated for 1.5 hrs followed by LPS stimulation and measured after 2 hrs by ELISA. Format: functional, organism-based.
The test system of data set [22] is Mus musculus. In words: Antiinflammatory activity in specific pathogen free BALB/c mouse assessed as inhibition of LPS-induced TNFalpha secretion in spleen at 1 mg/kg, po administered as single dose pretreated for 1.5 hrs followed by LPS stimulation and measured after 2 hrs by ELISA. The format is functional, organism-based.
In data set [23] the test system is Mus musculus. In words: Antiinflammatory activity in specific pathogen free BALB/c mouse assessed as inhibition of LPS-induced IL6 secretion in spleen at 1 mg/kg, po administered as single dose pretreated for 1.5 hrs followed by LPS stimulation and measured after 2 hrs by ELISA. Format: functional, organism-based.
The subject of data set [24] is Mus musculus. In words: Antiinflammatory activity in specific pathogen free BALB/c mouse assessed as inhibition of LPS-induced IL12p40 secretion in spleen at 1 mg/kg, po administered as single dose pretreated for 1.5 hrs followed by LPS stimulation and measured after 2 hrs by ELISA. Format: functional, organism-based.
Data set [25] relates to Mus musculus. In words: Protection against imiquimod-induced skin inflammation in BALB/c mouse psoriasis model assessed as decrease in lesion thickness at 25 mg/kg, po administered once daily for 7 days. The format is functional, organism-based.
The subject of data set [26] is Mus musculus. The experiment in a line: Protection against imiquimod-induced skin inflammation in BALB/c mouse psoriasis model assessed as decrease in skin scaling at 25 mg/kg, po administered once daily for 7 days. The format is functional, organism-based.
For data set [27], the system named is Mus musculus. The experiment in a line: Protection against imiquimod-induced skin inflammation in BALB/c mouse psoriasis model assessed as decrease in skin erythema at 25 mg/kg, po administered once daily for 7 days. The format is functional, organism-based.
The subject of data set [28] is Mus musculus. In words: Protection against imiquimod-induced skin inflammation in BALB/c mouse psoriasis model assessed as decrease in cumulative psoriasis score at 25 mg/kg, po administered once daily for 7 days. The format is functional, organism-based.
In data set [29] the test system is Mus musculus. The experiment in a line: Protection against imiquimod-induced skin inflammation in BALB/c mouse psoriasis model assessed as decrease in lesion thickness at 62.5 mg administered topically as cream formulation once daily for 7 days. Format: functional, organism-based.
Data set [30] concerns Mus musculus. In words: Protection against imiquimod-induced skin inflammation in BALB/c mouse psoriasis model assessed as decrease in skin scaling at 62.5 mg administered topically as cream formulation once daily for 7 days. Format: functional, organism-based.
The test system of data set [31] is Mus musculus. In words: Protection against imiquimod-induced skin inflammation in BALB/c mouse psoriasis model assessed as decrease in skin erythema at 62.5 mg administered topically as cream formulation once daily for 7 days. The format is functional, organism-based.
For data set [32], the target named is 3',5'-cyclic-AMP phosphodiesterase 4D (Homo sapiens) (UniProt Q08499). The experiment in a line: Inhibition of recombinant human PDE4D catalytic domain at 10 uM using [3H]cAMP as substrate measured after 30 mins by scintillation proximity assay relative to control.
Data set [33] deals with Phosphodiesterase 4 (Homo sapiens) (UniProt P27815+Q08499+Q07343+Q08493). In words: Inhibition of PDE4 in human PBMC assessed as reduction in LPS-stimulated TNFalpha production at 10 uM preincubated for 1 hr followed by LPS stimulation and measured after 18 to 20 hrs by ELISA relative to control. Format: protein assay.

For `COc1cc2c(cc1OC)C(CCc1c[nH]c3ccccc13)N(C(=O)C1CCOCC1)CC2` (racemic), the inhibition (usually the relative decrease from the control value, in per cent) in [1] came to 16.4%.

With `COc1cc2c(cc1OC)C(CCc1c[nH]c3ccccc13)N(C(=O)c1ccncc1)CC2` (racemic), the inhibition in data set [1] worked out at 30.7%.

For the molecule `COc1cc2c(cc1OC1CCCC1)[C@H](CCc1c[nH]c3cc(C)ccc13)N(C=O)CC2`, the inhibition in [1] was determined as 24%.

As for `COc1cc2c(cc1OC)[C@H](CCc1c[nH]c3cc(C)ccc13)N(C=O)CC2`, the recovery at 95 min was determined as 92.3% in data set [2] and 96.8% in [3]. In addition, the Papp A→B (usually the apparent permeability from the apical to the basolateral side of a cell layer) at 95 min in [4] is 18.4 ×10⁻⁶ cm/s. Moreover, the Papp B→A – broadly, the apparent permeability from the basolateral to the apical side of a cell layer – at 95 min in data set [5] was 19.9 ×10⁻⁶ cm/s. Moreover, the AUC(0-t) (in general, exposure summed from dosing to a finite time, without extrapolation to infinity) came out at 6210 ng·h/mL in [6] and 8390 ng·h/mL in data set [14]. Further, the AUC(0-inf) (in general, the area under the concentration-time curve extrapolated to infinity) in data set [7] amounted to 6280 ng·h/mL; in data set [15] it was 8460 ng·h/mL. In addition, the figures for the MRT in data set [8] and in [16] were 55.2 min and 150 min, respectively. Moreover, the half-life (usually how long it takes for the measured level to halve) is 36 min in [9] and 56.4 min in data set [17]. Also, the clearance (usually the volume of plasma or blood freed of the substance per unit of time) in data set [10] is 28.3 mL/min/kg. Further, the Vd in [11] was found to be 1.56 L/kg. Moreover, the time of peak concentration (Tmax) – broadly, the time from dosing to the highest level – in data set [12] came out at 79.8 min. Moreover, in [13], the Cmax (as a rule, the peak of the concentration-time curve) is 2450 ng/mL. Also, the outcome in the data set on Mus musculus [18], in the data set with Mus musculus [20], with Mus musculus [21], with Mus musculus [22], in the data set with Mus musculus [23] and with Mus musculus [24] was Active. Further, the result in the data set with Mus musculus [25], with Mus musculus [26], with Mus musculus [27], in the data set with Mus musculus [28], in the data set on Mus musculus [29] and in the data set with Mus musculus [30] was Active. For the same molecule, the result in the data set with Mus musculus [31] was Active. Further, the bioavailability (in general, dose-corrected exposure relative to a reference, in per cent) in data set [19] amounted to 68.3%.

As for `COc1cc2c(cc1OC)C(CCc1c[nH]c3ccccc13)N(CC1CCOCC1)CC2` (racemic), the values for the inhibition in [32] and in [33] were 34.6% and 36.7%, respectively.

For `COC(=O)CN1CCc2cc(OC)c(OC)cc2C1CCc1c[nH]c2ccccc12` (racemic), the inhibition in data set [1] came out at 39.1%.

Regarding `CCOc1cc([C@@H](CS(C)(=O)=O)N2C(=O)c3cccc(NC(C)=O)c3C2=O)ccc1OC`, the recovery at 95 min in data set [2] is 96.7%; in [3] it was 92.1%. The Papp A→B at 95 min in data set [4] was 14.9 ×10⁻⁶ cm/s. Also, in data set [5], the apparent permeability from basolateral to apical (Papp B→A) at 95 min worked out at 29 ×10⁻⁶ cm/s. In addition, the outcome in the data set with Mus musculus [25], in the data set with Mus musculus [26], in the data set on Mus musculus [27] and in the data set with Mus musculus [28] was Active.

For `COCCN1CCc2cc(OC)c(OC)cc2C1CCc1c[nH]c2ccccc12` (racemic), the inhibition was 19.2% in data set [1] and 25.7% in data set [33].

As to `COc1cc2c(cc1OC)C(CCc1c[nH]c3ccccc13)N(CC(F)(F)F)CC2` (racemic), in [1], the inhibition was 19.5%.
